This passage reports Ki results from BindingDB's records for doi:10.1021/jm00403a014 (National Institute of Diabetes, Digestive and Kidney …, 1988).

pKi: −log10 of the molar value.

This assay can be described thus: Binding affinity to sigma site of Phencyclidine receptor by displacement of [3H]-(+)-SKF- 10,047. On the technique in general: Loss of bound radioactivity is the signal in a displacement assay; it reports binding, not function.

Broadly, the pKi is the Ki on a negative log10 scale, so that one unit is a factor of ten. A low value points to a large Ki. The compound `c1ccc(C2(N3CCCCC3)CCCCC2)cc1` gave a pKi of 6.28.
